Legend:
BAE cells = format: cell-based, bovine; conditions: up to 10 mM concentration (not shown)
BVSM = assay: Viability of cultured cells, 72 hr; format: cell-based, bovine; conditions: 5% BCS, 0 to 1 mM
Experimental: (§1) FIG. 19. Effect of GSAO on proliferation of non-endothelial cells. 15,000 BxPC-3 (part A), HT1080 (part B), 3T3 (part C) or BVSM (part D) cells per well were seeded into gelatinised 24-well culture plates and allowed to attach for 24 hr. The media was then replaced with DMEM containing 0 to 1 mM GSAO or GSAA and either 5% BCS (part D) or 5% FCS (parts A, B and C). Cells were cultured for 72 hr and then dispersed and counted. The dotted lines indicate the cell number in control wells containing DMEM and 2% BCS (part D) or 2% FCS (parts A, B and C) which represented no to limited proliferation. The data points and errors represent the mean and range of duplicate wells.
(§2) BCE (Folkman et al. 1979), BAE, BxPC-3 (ATCC, Bethesda, Md.), HT1080 (Jiang et al., 1999), 3T3 (ATCC, Bethesda, Md.) and BVSM (Hogg et al., 1997) cells were harvested and cultured as indicated. […] Cells were cultured for 0 to 72 hr in 10% CO2 at 37° C. then dispersed in trypsin/EDTA (GibcoBRL, Granc Island, N.Y.), resuspended in Coulter balanced electrolyte solution and counted with a Z1 Coulter counter (Coulter Corp., Miami, Fla.) in all experiments there were two control wells containing DMEM with 1% GPS and either 5% BCS for BCE cells, 2% BCS for BAE and BVSM cells, or 2% FCS for BxPC-3, HT1080 and 3T3 cells. […]

HT1080 = assay: Viability of cultured cells, 72 hr; format: cell-based, human; conditions: 5% FCS, 0 to 1 mM
Experimental: as §1, §2

BxPc3 = assay: Viability of cultured cells, 72 hr; format: cell-based, human; conditions: 5% FCS, 0 to 1 mM
Experimental: as §1, §2

Human bone marrow cells = assay: 12 day human bone marrow culture assay, granulocyte/macrophage colonies; format: cell-based; conditions: 12 days, 0 to 100 μM
Experimental: FIG. 20. Effect of GSAO on proliferation of bone marrow progenitor cells. Human bone marrow cells were incubated in semi-solid agar containing 20% BGS, 1 ng per mL IL-3 and 0 to 100 μM GSAA or GSAO for 12 days. Granulocyte/macrophage colonies of 40 or more cells were counted under an inverted microscope. The data points and errors represent the mean and SE of quadruplicate cultures.
GSAO reduced the number of granulocyte/macrophage colonies in a 12 day human bone marrow culture assay with an IC50 of ˜30 μM (FIG. 20). […] Human bone marrow cells (˜5×10^5 cells per mL) were added to semi-solid agar in DMEM containing 20% BCS, […] IL-3 and 0 to 100 μM GSAA or GSAO. The cultures were incubated for 12 days at 37° C. and 5% CO2 and clusters of 40 or more cells were counted under an inverted microscope according to Metcalf (1977).

HT1080 tumours = assay: Tumour growth in mice, subcutaneous administration; format: in vivo, SCID mice; conditions: 10 mg per kg per day
Experimental: FIG. 25. Inhibition of human fibrosarcoma and murine Lewis lung tumour growth following systemic administration of GSAO. HT1080 or Lewis lung tumours were established in the proximal midline of female 7 to 9 week old SCID or C57Bl6/J mice, respectively. When the tumours were ˜0.1 cm^3 in volume the mice were randomised into two groups (n=5) and treated with either GSAA or GSAO at a dose of 10 mg per kg per day in 0.2 mL of PBS containing 100 mM glycine. The compounds were administered subcutaneously at a site distant from the tumour. Tumour volume and animal weight was measured every 3 days. The GSAO/GSAA HT1080 tumour volume ratio at day 17 of treatment was 0.29 (part A). The GSAO/GSAA Lewis lung tumour volume ratio at day 12 of treatment was 0.29 (part B). The data points and errors represent the mean and SE of the tumour volumes.
Female 7 to 9 week old SCID or C57Bl6/J mice were used (Massachusetts General Hospital, Boston, Mass.). Mice were held in groups of 3 to 5 at a 12 hour day and night cycle and were fed with animal chow and water ad libidum. […] The tumours were measured in two diameters and tumour volume was calculated using the relationship, tumour volume=a×b^2×0.52, where a is the longest and b the shortest diameters in cm. […] Tumour volume and animal weight was measured every 3 days. […]

SMILES | effect on BAE viability (BAE cells) | Viability IC50 (BVSM) | Viability IC50 (HT1080) | Viability IC50 (BxPc3) | IC50 for reduction of the number of granulocyte/macrophage colonies (Human bone marrow cells) | inhibition of the rate of fibrosarcoma tumour growth (HT1080 tumours; subcutaneous) | GSAO/GSAA HT1080 tumour volume ratio (HT1080 tumours; day 17 of treatment)
N[C@@H](CCC(=O)N[C@@H](CSCC(=O)Nc1ccc([As](=O)(O)O)cc1)C(=O)NCC(=O)O)C(=O)O [GSAA, 4-(N-(S-glutathionylacetyl)amino)phenylarsonic acid, reference compound] | no significant effect | no significant effect | no significant effect | no significant effect | no effect on colony numbers | – | –
NC(CCC(=O)NC(CSCC(=O)Nc1ccc([As]=O)cc1)C(=O)NCC(=O)O)C(=O)O (stereo not shown) [GSAO, 4-(N-(S-glutathionylacetyl)amino)-phenylarsenoxide] | – | – | – | – | – | ~70% | 0.29
